Results as given in paper PMC11173382, “In Vitro Investigations into the Potential Drug Interactions of Pseudoginsenoside DQ Mediated by Cytochrome P450 and Human Drug Transporters” (Molecules, 2024).

Biological target: T1, hOATP1B1 (Homo sapiens, UniProt Q9Y6L6)
T1 sequence (Q9Y6L6 1-691): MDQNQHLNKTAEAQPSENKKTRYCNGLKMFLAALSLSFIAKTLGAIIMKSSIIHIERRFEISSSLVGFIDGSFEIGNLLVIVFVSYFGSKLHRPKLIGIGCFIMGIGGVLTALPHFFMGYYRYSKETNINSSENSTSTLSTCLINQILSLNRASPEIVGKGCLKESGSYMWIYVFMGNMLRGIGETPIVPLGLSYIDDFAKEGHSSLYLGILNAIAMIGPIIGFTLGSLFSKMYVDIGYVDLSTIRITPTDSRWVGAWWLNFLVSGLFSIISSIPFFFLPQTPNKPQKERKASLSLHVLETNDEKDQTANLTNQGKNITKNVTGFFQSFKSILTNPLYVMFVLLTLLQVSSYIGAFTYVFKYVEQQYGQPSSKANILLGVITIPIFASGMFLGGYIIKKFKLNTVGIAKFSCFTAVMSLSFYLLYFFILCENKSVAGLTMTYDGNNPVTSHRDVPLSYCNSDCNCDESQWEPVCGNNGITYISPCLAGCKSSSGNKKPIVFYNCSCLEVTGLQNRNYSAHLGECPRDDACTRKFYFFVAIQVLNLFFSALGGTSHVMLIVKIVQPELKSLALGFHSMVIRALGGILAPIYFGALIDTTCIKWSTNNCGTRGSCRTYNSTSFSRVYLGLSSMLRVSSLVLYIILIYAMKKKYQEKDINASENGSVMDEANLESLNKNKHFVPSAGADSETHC
Test: Substrates uptake assay, HEK293A-OATP1B1 cells (3H-ES)
Format: in vitro ADME
Settings: for Transport activity of OATP1B1 (main text: percentage inhibition): negative control = 100%
From the text: Drug transporters mediate the cellular uptake and efflux of their substrates. Therefore, cell lines overexpressing a drug transporter can be utilized to investigate inhibitors of the transporter by assessing changes in substrate uptake. For each drug transporter, we selected a well-characterized inhibitor as the positive control. Radiolabeled substrates were used to indicate the decrease in transport efficiency when the drug transporters were inhibited by PDQ or the control inhibitors.
The concentrations of the control drugs and the substrates were stated in the assay details. Working solutions of the control inhibitors, the radiolabeled substrates, and each dose of PDQ were prepared at 200 times (200×) more concentrated solutions with DMSO for further dilution.
Transporter-overexpressed cell lines. Human organic anion transporter-overexpressed cell lines MDCKII-OAT1 and S2-OAT3, human organic anion transport polypeptide-overexpressed cell lines HEK293A-OATP1B1 and HEK293A-OATP1B3, human organic cation transporter 2-overexpressed cell line S2-OCT2, and human multi-drug resistance protein MDR1 (or P-gp)-overexpressed cell line MDCKII-MDR1 were gifts from Japan Fuji Biomedical Co., Ltd. (Fuji, Shizuoka Prefecture, Japan). Breast cancer resistance protein-overexpressed vesicles (sf9-BCRP vesicle) were purchased from GenoMembrane Co., Ltd. (Yokohama, Kanagawa, Japan).
Substrates uptake assay. In this assay, we studied the inhibition of PDQ against transporters OAT1, OAT3, OCT2, OATP1B1 and OATP1B3 with MDCKII-OAT1, S2-OAT3, S2-OCT2, HEK293A-OATP1B1and HEK293A-OATP1B3 cells, respectively. The radiolabeled substrates for OAT1, OAT3, OATP1B1, OATP1B3 and OCT2 were […], respectively (Table 5). Probenecid ([…]) was the positive control inhibitor of OAT1 and OAT3, while rifampicin ([…]) served as the control drug of OATP1B1 and OATP1B3. For OCT2, we used […] cimetidine to compare with the inhibitory effect of PDQ. Two times (2×) more concentrated working solutions of the drugs and the substrate were prepared with Dulbecco’s phosphate-buffered saline (DPBS, Gibco, Grand Island, NY, USA.). Then, an equal volume of 2× drug solution and 2× radiolabeled substrate solution were mixed as the working mix. All reagents were pre-warmed to 37 °C.
The cells were digested with 0.05% trypsin/EDTA. The density of the single-cell suspension was adjusted to 2.0 × 10^5 cells/mL for S2 cells and to 1.5 × 10^5 cells/mL for MDCK II and HEK293A cells. The cell suspension was then added to the reservoirs of the 24-well plate for culture until full confluency. The medium in the wells was removed, and the wells were washed with DPBS. Then, the plate was incubated for 10 min with pre-warmed DPBS in the wells. After removing DPBS, […] of working mix was added to each well to initiate the substrate uptake process. The reaction time was 5 min for S2-OCT2 cells, while the other four types of cells were incubated with the reaction mix for 2 min. Cold DPBS was used to terminate the substrate transportation. To each well, […] NaOH ([…]) was added to lyse the cells. Then, […] cell lysate was transferred to the counting vials, and 3 mL scintillation cocktail (Aquasol-2, PerkinElmer, Waltham, MA, USA) was added. […] Each sample was replicated three times (N = 3).
In = [100 × (U − U0)/(Uc − U0)]%(3)
The results were expressed as mean ± standard deviation (SD) and analyzed with GraphPad Prism 8.0 software (CA, USA). The IC50 of PDQ was curve-fitted with the FORECAST function. Statistical significance was calculated using a two-tailed test, and a p value < 0.05 was considered as significant.

Which “DPM (3H-ES uptake by OATP1B1)” value (inhibitor 0.1 μM) does the source give for `CC(C)(O)[C@@H]1CC[C@@](C)([C@H]2CC[C@]3(C)[C@@H]2[C@H](O)C[C@@H]2[C@@]4(C)CC[C@H](O)C(C)(C)[C@@H]4CC[C@]23C)O1` [PDQ, (20S,24S)-dammar-20,24-epoxy-3β, 12β, 25-triol] here?
Its value is 15255.0±875.8 DPM.

And the “Transport activity of OATP1B1 (main text: percentage inhibition)” value (inhibitor 0.1 μM)?
Its value is 100.9±5.8%.

What about the “DPM (3H-ES uptake by OATP1B1)” value (inhibitor 0.3 μM) of the same compound?
The value was 16354.0±875.5 DPM.

What about the “Transport activity of OATP1B1 (main text: percentage inhibition)” value (inhibitor 0.3 μM) of the same compound?
The value was 108.1±5.8%.

And the “DPM (3H-ES uptake by OATP1B1)” value (inhibitor 1 μM)?
Its value is 14584.0±689.5 DPM.

What about the “Transport activity of OATP1B1 (main text: percentage inhibition)” value (inhibitor 1 μM) of the same compound?
Its value is 96.4±4.6%.

And the “DPM (3H-ES uptake by OATP1B1)” value (inhibitor 3 μM)?
The value was 13110.3±561.2 DPM.

And the “Transport activity of OATP1B1 (main text: percentage inhibition)” value (inhibitor 3 μM)?
The value was 86.7±3.7%.

What about the “DPM (3H-ES uptake by OATP1B1)” value (inhibitor 10 μM) of the same compound?
The value was 8070.3±754.4 DPM.

And the “Transport activity of OATP1B1 (main text: percentage inhibition)” value (inhibitor 10 μM)?
Its value is 53.4±5.0%.

What about the “DPM (3H-ES uptake by OATP1B1)” value (inhibitor 30 μM) of the same compound?
The value was 5983.3±318.4 DPM.
